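Cells were grown in 96-well plates and exposed to each compound for 48 hours at five concentrations; endpoints were interpolated linearly between bracketing concentrations, or set to the highest concentration if not reached. Definition used: TGI = concentration required for complete inhibition of growth.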
Tests used:
Experiment in all cases: NCI tumour cell line growth inhibition, 48 h
PC-3 prostate = tested on: PC-3 prostate
ACHN renal = tested on: ACHN renal
SNB-19 CNS = tested on: SNB-19 CNS
SNB-75 CNS = tested on: SNB-75 CNS
SK-MEL-5 melanoma = tested on: SK-MEL-5 melanoma
OVCAR-3 ovarian = tested on: OVCAR-3 ovarian
SK-OV-3 ovarian = tested on: SK-OV-3 ovarian
BT-549 breast = tested on: BT-549 breast
HCT-15 colon = tested on: HCT-15 colon
RPMI-8226 leukemia = tested on: RPMI-8226 leukemia
KM12 colon = tested on: KM12 colon
MCF7 breast = tested on: MCF7 breast
EKVX NSCLC = tested on: EKVX NSCLC
MOLT-4 leukemia = tested on: MOLT-4 leukemia
SK-MEL-28 melanoma = tested on: SK-MEL-28 melanoma
HS 578T breast = tested on: HS 578T breast
786-0 renal = tested on: 786-0 renal
IGROV1 ovarian = tested on: IGROV1 ovarian
MDA-MB-435 = tested on: MDA-MB-435
SR leukemia = tested on: SR leukemia
SF-539 CNS = tested on: SF-539 CNS
OVCAR-8 ovarian = tested on: OVCAR-8 ovarian
SF-268 CNS = tested on: SF-268 CNS
CCRF-CEM leukemia = tested on: CCRF-CEM leukemia
HT29 colon = tested on: HT29 colon
HOP-62 NSCLC = tested on: HOP-62 NSCLC
T-47D breast = tested on: T-47D breast
COLO 205 colon = tested on: COLO 205 colon
MDA-N = tested on: MDA-N
U251 CNS = tested on: U251 CNS
OVCAR-5 ovarian = tested on: OVCAR-5 ovarian
A549 NSCLC = tested on: A549 NSCLC
SN12C renal = tested on: SN12C renal
UO-31 renal = tested on: UO-31 renal
HCT-116 colon = tested on: HCT-116 colon
UACC-62 melanoma = tested on: UACC-62 melanoma
NCI/ADR-RES ovarian = tested on: NCI/ADR-RES ovarian
SF-295 CNS = tested on: SF-295 CNS
NCI-H23 lung = tested on: NCI-H23 lung
CAKI-1 renal = tested on: CAKI-1 renal
OVCAR-4 ovarian = tested on: OVCAR-4 ovarian
NCI-H460 lung = tested on: NCI-H460 lung
TK-10 renal = tested on: TK-10 renal
SW-620 colon = tested on: SW-620 colon
MDA-MB-231 breast = tested on: MDA-MB-231 breast
HCC-2998 colon = tested on: HCC-2998 colon
DU-145 prostate = tested on: DU-145 prostate
LOX IMVI melanoma = tested on: LOX IMVI melanoma
NCI-H522 lung = tested on: NCI-H522 lung
M14 melanoma = tested on: M14 melanoma
SK-MEL-2 melanoma = tested on: SK-MEL-2 melanoma
HOP-92 NSCLC = tested on: HOP-92 NSCLC
K-562 leukemia = tested on: K-562 leukemia
UACC-257 melanoma = tested on: UACC-257 melanoma
NCI-H226 lung = tested on: NCI-H226 lung
HL-60(TB) leukemia = tested on: HL-60(TB) leukemia
MALME-3M melanoma = tested on: MALME-3M melanoma
A498 renal = tested on: A498 renal

With `O=C(CN1CCCC1)Nc1ccc2sc3ccccc3c(=O)c2n1` the TGI (PC-3 prostate) was 57.4 µM, the TGI (ACHN renal) was 31.7 µM and the TGI (SNB-19 CNS) was greater than 100 µM. The TGI (SNB-75 CNS) was 60 µM, the TGI (SK-MEL-5 melanoma) was 53.4 µM and the TGI (OVCAR-3 ovarian) was greater than 100 µM. It also gave a TGI (SK-OV-3 ovarian) of 58.7 µM, a TGI (BT-549 breast) of 70 µM and a TGI (HCT-15 colon) greater than 100 µM. The TGI (RPMI-8226 leukemia) was 63 µM, the TGI (KM12 colon) was 44.2 µM and the TGI (MCF7 breast) was greater than 100 µM. It also gave a TGI (EKVX NSCLC) greater than 100 µM, a TGI (MOLT-4 leukemia) of 15.6 µM and a TGI (SK-MEL-28 melanoma) of 39.7 µM. For the same molecule, the TGI (HS 578T breast) was 52.1 µM, the TGI (786-0 renal) was 48.1 µM and the TGI (IGROV1 ovarian) was 66.5 µM. The TGI (MDA-MB-435) was 35.3 µM, the TGI (SR leukemia) was greater than 100 µM and the TGI (SF-539 CNS) was 35.3 µM. For the same molecule, the TGI (OVCAR-8 ovarian) was 52.5 µM, the TGI (SF-268 CNS) was 85.9 µM and the TGI (CCRF-CEM leukemia) was 48.2 µM. It also gave a TGI (HT29 colon) greater than 100 µM, a TGI (HOP-62 NSCLC) of 65 µM and a TGI (T-47D breast) greater than 100 µM. For the same molecule, the TGI (COLO 205 colon) was 44.8 µM, the TGI (MDA-N) was 77.6 µM and the TGI (U251 CNS) was 46.3 µM. For the same molecule, the TGI (OVCAR-5 ovarian) was 62.3 µM, the TGI (A549 NSCLC) was 38.8 µM and the TGI (SN12C renal) was greater than 100 µM. It also gave a TGI (UO-31 renal) of 27.9 µM, a TGI (HCT-116 colon) of 68.3 µM and a TGI (UACC-62 melanoma) of 36.6 µM. The TGI (NCI/ADR-RES ovarian) was 54.5 µM, the TGI (SF-295 CNS) was 67.8 µM and the TGI (NCI-H23 lung) was 99.1 µM. The TGI (CAKI-1 renal) was 47.1 µM, the TGI (OVCAR-4 ovarian) was greater than 100 µM and the TGI (NCI-H460 lung) was greater than 100 µM. The TGI (TK-10 renal) was greater than 100 µM, the TGI (SW-620 colon) was 33.6 µM and the TGI (MDA-MB-231 breast) was greater than 100 µM. For the same molecule, the TGI (HCC-2998 colon) was 39.8 µM, the TGI (DU-145 prostate) was greater than 100 µM and the TGI (LOX IMVI melanoma) was 37.3 µM. For the same molecule, the TGI (NCI-H522 lung) was 36 µM, the TGI (M14 melanoma) was 54.4 µM and the TGI (SK-MEL-2 melanoma) was 49.1 µM. The TGI (HOP-92 NSCLC) was 74.6 µM and the TGI (K-562 leukemia) was 46.7 µM.

For `N#C/C(N)=C(\C#N)N=CNc1ccccc1N`, the TGI (PC-3 prostate) was greater than 100 µM, the TGI (ACHN renal) was greater than 100 µM and the TGI (SNB-19 CNS) was greater than 100 µM. It also gave a TGI (SNB-75 CNS) greater than 100 µM, a TGI (SK-MEL-5 melanoma) greater than 100 µM and a TGI (OVCAR-3 ovarian) greater than 100 µM. For the same molecule, the TGI (SK-OV-3 ovarian) was greater than 100 µM, the TGI (UACC-257 melanoma) was greater than 100 µM and the TGI (BT-549 breast) was greater than 100 µM. The TGI (HCT-15 colon) was greater than 100 µM, the TGI (RPMI-8226 leukemia) was greater than 100 µM and the TGI (KM12 colon) was greater than 100 µM. The TGI (MCF7 breast) was greater than 100 µM, the TGI (EKVX NSCLC) was greater than 100 µM and the TGI (NCI-H226 lung) was greater than 100 µM. It also gave a TGI (MOLT-4 leukemia) greater than 100 µM, a TGI (SK-MEL-28 melanoma) greater than 100 µM and a TGI (HS 578T breast) greater than 100 µM. The TGI (786-0 renal) was greater than 100 µM, the TGI (IGROV1 ovarian) was greater than 100 µM and the TGI (MDA-MB-435) was greater than 100 µM. For the same molecule, the TGI (SR leukemia) was greater than 100 µM, the TGI (SF-539 CNS) was greater than 100 µM and the TGI (OVCAR-8 ovarian) was greater than 100 µM. For the same molecule, the TGI (SF-268 CNS) was greater than 100 µM, the TGI (CCRF-CEM leukemia) was greater than 100 µM and the TGI (HT29 colon) was greater than 100 µM. It also gave a TGI (HOP-62 NSCLC) greater than 100 µM, a TGI (T-47D breast) greater than 100 µM and a TGI (COLO 205 colon) greater than 100 µM. The TGI (MDA-N) was greater than 100 µM, the TGI (U251 CNS) was greater than 100 µM and the TGI (OVCAR-5 ovarian) was greater than 100 µM. For the same molecule, the TGI (A549 NSCLC) was greater than 100 µM, the TGI (SN12C renal) was greater than 100 µM and the TGI (UO-31 renal) was greater than 100 µM. It also gave a TGI (HCT-116 colon) greater than 100 µM, a TGI (HL-60(TB) leukemia) greater than 100 µM and a TGI (MALME-3M melanoma) greater than 100 µM. It also gave a TGI (UACC-62 melanoma) greater than 100 µM, a TGI (A498 renal) greater than 100 µM and a TGI (NCI/ADR-RES ovarian) greater than 100 µM. It also gave a TGI (SF-295 CNS) greater than 100 µM, a TGI (NCI-H23 lung) greater than 100 µM and a TGI (CAKI-1 renal) greater than 100 µM. It also gave a TGI (OVCAR-4 ovarian) greater than 100 µM, a TGI (NCI-H460 lung) greater than 100 µM and a TGI (TK-10 renal) greater than 100 µM. The TGI (SW-620 colon) was greater than 100 µM, the TGI (MDA-MB-231 breast) was greater than 100 µM and the TGI (HCC-2998 colon) was greater than 100 µM. It also gave a TGI (DU-145 prostate) greater than 100 µM, a TGI (LOX IMVI melanoma) greater than 100 µM and a TGI (NCI-H522 lung) greater than 100 µM. It also gave a TGI (M14 melanoma) greater than 100 µM, a TGI (SK-MEL-2 melanoma) greater than 100 µM and a TGI (K-562 leukemia) greater than 100 µM.

— PubChem BioAssay (NCI)
